The source of these data is patent publication US5561047A, “Method of identifying effectors of integrin activation” (priority 1994, dated 1996).

Like-named read-outs stand apart in the source and are kept apart here.

Assay [1] deals with platelet aggregation and secretion. The note with it: Sless, Physiol. Rev. 1989; cited from earlier work.
In assay [2] the target is T1, integrin αIIb β3 (washed human platelets) (Homo sapiens, UniProt P05106+P08514).
T1 construct: endogenous in cells; host or cells: washed human platelets from whole blood of healthy volunteers
The assay is described as follows: integrin activation ELISA: biotin-PAC1 binding to intact washed platelets. The note with it: for extent of biotin-PAC1 binding at maximal agonist concentrations: comparison of thrombin, PMA and ADP; for αIIb β3 activation: physiological agonists. Type of assay: cell-based. On the procedure: Platelet incubations were carried out in wells of Falcon flexible polyvinyl chloride (PVC) microtitre plates with 96 U-bottom wells (Becton Dickinson, San Jose, Calif.). ELISA reactions were carried out in 96 well Immulon II polystyrene plates (Dynatech Laboratories, Inc., Chantilly, Va.) that had been precoated with streptavidin. This was accomplished by addition of 75 μl/well of streptavidin (1.25 μg/ml) for 16 hours at 4°, followed by washing four times with 200 μl of 1% TWEEN(polyethylenesorbit -20 in phosphate-buffered saline (PBS), pH 7.4, blocking with 200 μl of 1% bovine serum albumin in PBS for 2 hours at room temperature, and washing again. These plates could be stored at -20° for at least 3 months prior to use in the assay.
(§1) Whole blood was obtained from healthy, drug-free volunteers and anticoagulated with a 1:6 volume of acid-citrate-dextrose formula A. Platelet-rich plasma was collected by centrifugation at 180×g for 20 minutes, incubated for 5 minutes with 1 μM prostaglandin E1 and 1 unit/ml apyrase, then sedimented at 500×g for 10 minutes and resuspended in 5 ml of 2 wash buffer containing 20 mM HEPES, 0.15 M NaCl, 0.1% glucose, 1 μM prostaglandin E1, 1 unit/ml apyrase, and 1.5 mM EDTA, pH 7.4. After another centrifugation at 500×g for 20 minutes, the platelets were finally resuspended to 5.8×10^8 /ml in an incubation buffer containing 137 mM NaCl, 2.7 mM KCl, 1.0 mM MgCl2, 3.3 mM NaH2 PO4, 0.1% glucose, 0.1% bovine serum albumin, and 20 mM HEPES, pH 7.35.
Fifty-five μl of washed platelets were added in triplicate to wells of PVC plates containing 10 μl of the desired agonist (or the activation inhibitor, PGI2) and 25 μl of the desired inhibitory test compound (or the equivalent vehicle as a diluent). After 10 minutes at 37° without shaking, 10 μl of biotin-PAC1 were added to achieve a final antibody concentration of 0.5 μg/ml and a platelet concentration of 3.2×10^8 /ml. After a further 15 minutes incubation at room temperature without shaking, the microtitre plates were centrifuged at 2800 rpm for 10 minutes to sediment the platelets, conditions under which essentially all of the platelets were removed from the supernatant.
After platelet centrifugation, 50 μl of supernatant from each well were transferred to corresponding wells of streptavidin-coated plates and incubated for 30 minutes at room temperature. Each well was then washed four times with 200 μl of PBS/Tween, followed by addition of 50 μl of goat anti-mouse IgM-horseradish peroxidase conjugate (1:1500). After incubation for 60 minutes at room temperature, the plates were again washed four times with PBS/Tween, followed by addition of 50 μl of a reaction mixture containing 1 mg/ml o-phenylenediamine dihydrochloride and 0.012% H2 O2 in 0.1 M citrate buffer, pH 4.5. After a final 20 minutes at room temperature, reactions were stopped with 25 μl of 4 N HCl, and formation of the reaction product was measured at 490 nm in a THERMOmax microplate reader (Molecular Devices, Inc.)
Triplicate aliquots of washed human platelets were incubated in microtitre wells at a final volume of 90 μl in the presence of a platelet agohist such as PMA or thrombin, in order to convert αIIb β3 into a high affinity, ligand-competent state. Compounds that were being tested for their ability to inhibit αIIb β3 were also added to some of the wells at this stage. Other wells contain PGI2 (0.2 μM), a potent platelet activation inhibitor, to purposely maintain αIIb β3 in a low-affinity state. After 10 minutes at 37°, 10 μl of a subsaturating and limiting concentration of biotin-PAC1 was added to each well and the incubation was continued for an additional 15 minutes at room temperature.
The microtitre plates were then centrifuged at 2800 rpm for 10 minutes in order to sediment the platelets. […] In contrast, platelets in wells containing an agonist have bound biotinPAC1. […]
(ELISA stands for enzyme-linked immunosorbent assay.)

The test system of assay [3] is integrin αIIb β3 (washed platelets). The assay is described as follows: flow cytometry of FITC-PAC1 binding to washed platelets. Type of assay: cell-based, human. The note with it: washed platelets stimulated for 15 minutes with 0.2 mM phorbol myristate acetate; representative experiment. On the procedure: as §1
Assay variables in each step of the assay were examined systematically. […] Flow cytometry was used to assess the activation state of the platelets using FITC-PAC1 as the activation marker (Shattil et al., Blood 1987, 70, 307). No activation of washed platelets was detected. In a representative experiment, mean FITC-PAC1 binding to washed platelets was 22 arbitrary fluorescence units, a value identical to that obtained with platelets in whole blood or in platelet-rich plasma. FITC-PAC1 binding to washed platelets that had been stimulated for 15 minutes with 0.2 mM phorbol myristate acetate amounted to 1,776 fluorescence units.

For assay [4], the system named is αIIb β3. The note with it: PMA 0.2 μM; Shattil et al., Blood 1987; cited from earlier work.
In assay [5] the test system is "internal" pool of activated αIIb β3. The note with it: unstirred platelets; Woods et al. 1986; cited from earlier work.
Assay [6] has as its system protein kinase C. The note with it: Toullec et al. 1991; cited from earlier work.

T1 sequence (P08514 32-887 limits assumed): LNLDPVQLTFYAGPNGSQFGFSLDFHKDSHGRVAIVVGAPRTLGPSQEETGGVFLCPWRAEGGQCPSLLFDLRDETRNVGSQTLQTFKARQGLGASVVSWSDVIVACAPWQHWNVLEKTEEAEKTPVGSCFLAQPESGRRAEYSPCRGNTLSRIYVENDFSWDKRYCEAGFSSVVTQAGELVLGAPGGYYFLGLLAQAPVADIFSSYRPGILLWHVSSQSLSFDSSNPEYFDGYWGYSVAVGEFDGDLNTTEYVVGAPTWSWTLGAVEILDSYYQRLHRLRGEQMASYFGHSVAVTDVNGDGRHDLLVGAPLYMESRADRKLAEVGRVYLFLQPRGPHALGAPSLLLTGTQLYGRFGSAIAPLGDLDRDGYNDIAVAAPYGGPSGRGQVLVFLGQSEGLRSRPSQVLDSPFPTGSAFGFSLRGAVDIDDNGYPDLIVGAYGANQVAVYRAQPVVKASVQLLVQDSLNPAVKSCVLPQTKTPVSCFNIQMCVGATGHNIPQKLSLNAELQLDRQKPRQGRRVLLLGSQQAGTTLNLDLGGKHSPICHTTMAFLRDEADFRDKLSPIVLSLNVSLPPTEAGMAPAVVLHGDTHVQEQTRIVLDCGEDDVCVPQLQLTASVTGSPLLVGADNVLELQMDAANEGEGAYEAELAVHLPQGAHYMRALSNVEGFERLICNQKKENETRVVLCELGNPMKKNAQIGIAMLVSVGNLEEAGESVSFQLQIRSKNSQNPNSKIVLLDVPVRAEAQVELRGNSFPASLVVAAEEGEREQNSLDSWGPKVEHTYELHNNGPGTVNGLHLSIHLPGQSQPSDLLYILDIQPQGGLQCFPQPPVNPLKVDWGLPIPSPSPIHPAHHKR
T1 sequence (P08514 891-1039 limits assumed): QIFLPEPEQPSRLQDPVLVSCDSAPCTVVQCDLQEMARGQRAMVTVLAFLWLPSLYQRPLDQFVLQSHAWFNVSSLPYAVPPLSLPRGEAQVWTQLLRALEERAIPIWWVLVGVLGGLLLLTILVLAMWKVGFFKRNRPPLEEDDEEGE
T1 sequence (P05106 27-788): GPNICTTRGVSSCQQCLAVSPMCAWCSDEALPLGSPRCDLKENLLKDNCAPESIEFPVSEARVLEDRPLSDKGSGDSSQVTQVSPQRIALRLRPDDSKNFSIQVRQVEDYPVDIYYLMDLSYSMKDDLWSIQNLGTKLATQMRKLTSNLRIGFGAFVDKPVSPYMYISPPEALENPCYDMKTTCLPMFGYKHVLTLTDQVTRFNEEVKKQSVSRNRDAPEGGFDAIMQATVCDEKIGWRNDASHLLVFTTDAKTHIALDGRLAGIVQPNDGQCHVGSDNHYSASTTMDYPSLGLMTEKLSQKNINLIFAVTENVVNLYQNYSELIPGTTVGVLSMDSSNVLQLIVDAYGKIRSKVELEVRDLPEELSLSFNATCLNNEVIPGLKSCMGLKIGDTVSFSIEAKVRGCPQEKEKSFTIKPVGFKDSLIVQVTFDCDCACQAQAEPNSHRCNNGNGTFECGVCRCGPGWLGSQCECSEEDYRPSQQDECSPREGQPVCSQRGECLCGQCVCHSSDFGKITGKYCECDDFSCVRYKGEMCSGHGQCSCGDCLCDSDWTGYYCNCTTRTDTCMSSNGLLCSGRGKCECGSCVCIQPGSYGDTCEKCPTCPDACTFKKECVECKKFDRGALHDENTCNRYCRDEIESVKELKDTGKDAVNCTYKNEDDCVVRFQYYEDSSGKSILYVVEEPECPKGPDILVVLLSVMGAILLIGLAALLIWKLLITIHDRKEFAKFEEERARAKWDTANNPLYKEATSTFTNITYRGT

Regarding antimycin A, in assay [1], the “inhibition of platelet aggregation and secretion” value is “block both platelet aggregation and secretion”.

With `CCCCCCCCCCCCCC(=O)O[C@@H]1[C@@H](C)[C@@]2(O)[C@@H](C=C(CO)C[C@]3(O)C(=O)C(C)=C[C@@H]23)[C@@H]2C(C)(C)[C@]12OC(C)=O` [PMA, phorbol myristate acetate], the “activation of αIIb β3 in the integrin activation ELISA” value in assay [2] (PMA 0.2 μM) is “maximal activation of αIIb β3”. The “amount of biotin-PAC1 remaining in supernatant” value in assay [2] (PMA 0.2 μM, 0.5 μg/ml biotin-PAC1, increasing number of activated platelets) is listed as “decreased as the number of activated platelets in the well increased”. For the same compound, the “extent of biotin-PAC1 binding at maximal agonist concentrations” value (from here on “extent of biotin-PAC1 binding”) in assay [2] is recorded as “similar”. Further, in assay [3], the “mean FITC-PAC1 binding” value is reported as 1,776 fluorescence units. In addition, the “activation of αIIb β3 in conventional assays” value in assay [4] is “maximal activation of αIIb β3”. For the same compound, the “stimulation of surface expression of an internal pool of activated αIIb β3” value in assay [5] was “stimulate the surface expression”.

`O=CC[C@@H](O)[C@H](O)[C@H](O)CO` [2-Deoxyglucose]: in assay [1], the “inhibition of platelet aggregation and secretion” value was “block both platelet aggregation and secretion”.

As for `CCCCC[C@H](O)/C=C/[C@@H]1[C@H]2C/C(=C/CCCC(=O)O)O[C@H]2C[C@H]1O` [PGI2, prostaglandin I2], in assay [2] (PGI2 0.2 μM), the “biotin-PAC1 bound to platelets in wells containing PGI2” value was “do not have bound biotin-PAC1”. Moreover, the “depletion of PAC1 from supernatant” value in assay [2] (PGI2-treated, unactivated platelets, any platelet concentration) is on record as “No depletion of PAC1 was observed”.

Take bisindolylmaleimide: the “concentration of complete inhibition of biotin-PAC1 binding” value in assay [2] (PMA-stimulated platelets) amounted to 20 µM. Further, in assay [2] (PMA-stimulated platelets, read-out: IC50, inhibition of biotin-PAC1 binding), the half-maximal inhibitory concentration (IC50) (commonly the concentration needed to halve the response being measured) was about 1000 nM. The “concentration maximally effective on protein kinase C in platelets” value in assay [6] is 10 to 20 µM.

Turning to fibrinogen, in assay [2] (activated platelets, read-out: IC50, inhibition of biotin-PAC1 binding to activated platelets), the concentration for half-maximal inhibition (IC50) stood at 400 nM.

For the compound RGES, the “inhibition of biotin-PAC1 binding to activated platelets” value in assay [2] (activated platelets) is given as “ineffective”.

With thrombin, in assay [2], the “extent of biotin-PAC1 binding” value was “similar” and the “αIIb β3 activation” value is reported as “caused αIIb β3 activation in a dose-dependent manner”. Besides, in assay [2] (thrombin), the “concentration of maximal αIIb β3 activation” value was determined as 0.1 U/ml. In assay [5], the “stimulation of surface expression of an internal pool of activated αIIb β3” value was “stimulate the surface expression”.

For the compound RGDS, the “inhibition of biotin-PAC1 binding to activated platelets” value in assay [2] (activated platelets) is listed as “inhibited in a dose-dependent manner”.

Turning to `Nc1ncnc2c1ncn2[C@@H]1O[C@H](COP(=O)(O)OP(=O)(O)O)[C@@H](O)[C@H]1O` [ADP], in assay [2], the EC50 (in general, the concentration at which the effect is half-maximal) is about 1000 nM; the “extent of biotin-PAC1 binding” value is given as “less”; the “αIIb β3 activation” value was “caused αIIb β3 activation in a dose-dependent manner”. The “concentration of maximal αIIb β3 activation” value in assay [2] (ADP) came to 10 µM.
